One block for each compound: values may come before it.
Experiments:
[1] = Pharmacokinetic study in rat plasma after oral administration of FKQJF extract (UFLC–MS/MS); format: in vivo, Sprague-Dawley (SD) rats; settings: for AUC(0-inf) / AUC(0-t) / Cmax / half-life / MRT last / MRT inf / Tmax: Sprague-Dawley, oral FKQJF extract, single dose 3.2 g/kg, mean ± SD; for MRT last: read-out: MRT0→t; for MRT inf: read-out: MRT0→∞; for Tmax: read-out: Tmax
Description: (§1) Aliquots of 100 μL plasma samples were mixed with 10 μL I.S. samples (1 μg/mL, in MeOH), then added with 500 μL ACN, respectively, and vortexed for 5 min, centrifugated at 10,000 rpm for 10 min, the supernatants were transferred into clean vials and dried in a vacuum centrifugal concentrator at 1200 rpm, 37 °C. After that, 100 μL ACN was added and ultrasonic (frequency 40 kHz, power 250 W) extracted for 5 min to dissolve the dry residue, vortexed for 1 min and centrifugated at 10,000 rpm for 5 min, 1 μL of each final supernatant was injected into UFLC–MS/MS for analysis.
An 8050 UFLC–MS/MS system equipped with LC-30A binary pump, a SIL-30AC autosampler, a SPD-M30A PDA detector, a CTO-20AC column oven, and a 8050 triple quadrupole mass spectrometer with an electrospray ionization source (ESI) was applied to detect and quantify FKQJF compounds in plasma samples. Data were acquired and processed with the software LabSolution (Ver. 5.6).
A Kinetex XB-C18 HPLC column (100 × 2.1 mm, 2.6 μm) linked with an equivalent guard column was used for chromatographic separation. The aqueous phase contained 0.2% formic acid was used as mobile phase A, and organic phase ACN as mobile phase B. The gradient elution method using in this program was: 3–5 min, 28–31% B; 5–7 min, 31–34% B; 7–9 min, 34–65% B; 9–10 min, 65–95% B; 10–11.5 min, 95% B. The flow rate of mobile phase, column temperature and autosampler temperature was 0.4 mL/min, 30 °C and 4 °C, respectively. The injection volume of each sample was set as 1 μL. The main MS spectrum parameters were set as follows: the flow rate of drying gas (N2) was 10.0 L/min; the atomized gas was 3.0 L/min and the heating gas flow rate was 10.0 L/min. The main temperatures of interface, desolvation and heat block was 300 °C, 250 °C and 400 °C, respectively. And, the interface and detector voltage were 3 kV and 1.8 kV.
Rats were divided into a blank group and a FKQJF administration group (6 rats for each), and fasted for 24 h. Each rat of the administration group was given FKQJF extract suspension at a single dose of 3.2 g FKQJF/kg body weight through oral administration in parallel. Blood samples (0.25 mL) were gathered from the orbital venous plexus of each rat, with FKQJF group gathered at 14 serial timepoints (6 rats for each) as 0.083 h, 0.16 h, 0.33 h, 0.5 h, 0.75 h, 1.0 h, 1.5 h, 2 h, 3 h, 4 h, 6 h, 8 h, 12 h and 24 h after drug administration. The blood samples were centrifugated at 6000g for 10 min to isolate plasma and stored at − 20 °C for further analysis.
Data were analyzed using the Drug and Statistics (DAS) Software version 2.0 (DAS 2.0, Mathematical Pharmacology Professional Committee of China, Shanghai, China). The non-compartmental mode was applied to obtain the following PK parameters: area under the plasma concentration–time curve from time zero to the time of last quantifiable concentration (AUC0→t) and area under the plasma concentration–time curve to time infinity (AUC0→∞), the elimination half-life (t1/2), mean retention time to last sampling time (MRT0→t) and mean retention time to infinity (MRT0→∞). The maximum plasma concentration (Cmax) and the time to maximum concentration (Tmax) were observed directly from the concentration–time (C–T) curves and measured data. All data are presented as mean ± SD.

[2] = Ordinary stability of QC samples (room temperature for 8 h); format: physicochemical, rat; settings: plasma QC, room temperature 8 h
Description: as §1
(§2) Six replicates of low, medium and high concentrations of quality control (QC) samples were used to verify the stabilities under different conditions including: place at room temperature for 8 h, freeze (− 20 °C) and thaw for three times, and store at − 20 °C for 20 days.

[3] = Freeze–thaw stability of QC samples (−20 °C, three times); format: physicochemical, rat; settings: plasma QC, freeze (−20 °C) and thaw three times
Description: as §1, §2

[4] = Long-term stability of QC samples (−20 °C for 20 days); format: physicochemical, rat; settings: plasma QC
Description: as §1, §2

- AUC(0-inf) [1]: 194 ± 27.9 ng·h/mL
- AUC(0-t) [1]: 74.7 ± 8.31 ng·h/mL
- Cmax [1]: 10.2 ± 0.58 ng/mL
- half-life [1]: 33.6 ± 27.1 h
- MRT last [1]: 9.85 ± 0.85 h
- MRT inf [1]: 48.2 ± 39.8 h
- Tmax [1]: 1.83 ± 0.29 h
- shape of the plasma concentration–time curve ([1]; oral FKQJF extract 3.2 g/kg): double-peaks
- Ordinary stability Mean ([2]; spiked 20 ng/mL): 107.46%
- Ordinary stability Mean ([2]; spiked 200 ng/mL): 86.65%
- Ordinary stability Mean ([2]; spiked 400 ng/mL): 106.31%
- Freeze–thaw stability Mean ([3]; spiked 20 ng/mL): 88.16%
- Freeze–thaw stability Mean ([3]; spiked 200 ng/mL): 112.10%
- Freeze–thaw stability Mean ([3]; spiked 400 ng/mL): 104.63%
- Long-term stability Mean ([4]; spiked 20 ng/mL): 114.56%
- Long-term stability Mean ([4]; spiked 200 ng/mL): 86.82%
- Long-term stability Mean ([4]; spiked 400 ng/mL): 118.76%
Structure (SMILES): CCC/C=C1\OC(=O)C2=C1CCC=C2 [Analyte 18, Z-ligustilide]

Structure (SMILES): COc1cc(O)c2c(=O)cc(-c3ccccc3)oc2c1OC [Analyte 19, 7-O-methylwogonin]
- AUC(0-inf) [1]: 252 ± 62.5 ng·h/mL
- AUC(0-t) [1]: 249 ± 65.5 ng·h/mL
- Cmax [1]: 169 ± 73.5 ng/mL
- half-life [1]: 1.1 ± 0.47 h
- MRT last [1]: 2.44 ± 0.12 h
- MRT inf [1]: 2.55 ± 0.21 h
- Tmax [1]: 2 h
- Ordinary stability Mean ([2]; spiked 10 ng/mL): 96.33%
- Ordinary stability Mean ([2]; spiked 150 ng/mL): 80.66%
- Ordinary stability Mean ([2]; spiked 300 ng/mL): 96.04%
- Freeze–thaw stability Mean ([3]; spiked 10 ng/mL): 103.66%
- Freeze–thaw stability Mean ([3]; spiked 150 ng/mL): 111.86%
- Freeze–thaw stability Mean ([3]; spiked 300 ng/mL): 94.97%
- Long-term stability Mean ([4]; spiked 10 ng/mL): 116.14%
- Long-term stability Mean ([4]; spiked 150 ng/mL): 84.29%
- Long-term stability Mean ([4]; spiked 300 ng/mL): 85.96%
